Calls of active or inactive are those of the source.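 Rule for the calls: active = maximal inhibition of USP17 at or above 30% in the confirmation dose-response, a value not among the printed readouts; inactive = the rest.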
These compounds were tested against Ubiquitin carboxyl-terminal hydrolase 17-like protein 5 (Homo sapiens) (UniProt A8MUK1) (assay: ubiquitin-specific protease 17 DUB inhibitors, concentration-effect assay, cell-free, verification of initial screening actives (AID 1645864)). Conditions: purified USP17, ubiquitin-rhodamine cleavage fluorescence, 3 h.
Chain of Ubiquitin carboxyl-terminal hydrolase 17-like protein 5 (Homo sapiens) (A8MUK1 whole entry, looked up): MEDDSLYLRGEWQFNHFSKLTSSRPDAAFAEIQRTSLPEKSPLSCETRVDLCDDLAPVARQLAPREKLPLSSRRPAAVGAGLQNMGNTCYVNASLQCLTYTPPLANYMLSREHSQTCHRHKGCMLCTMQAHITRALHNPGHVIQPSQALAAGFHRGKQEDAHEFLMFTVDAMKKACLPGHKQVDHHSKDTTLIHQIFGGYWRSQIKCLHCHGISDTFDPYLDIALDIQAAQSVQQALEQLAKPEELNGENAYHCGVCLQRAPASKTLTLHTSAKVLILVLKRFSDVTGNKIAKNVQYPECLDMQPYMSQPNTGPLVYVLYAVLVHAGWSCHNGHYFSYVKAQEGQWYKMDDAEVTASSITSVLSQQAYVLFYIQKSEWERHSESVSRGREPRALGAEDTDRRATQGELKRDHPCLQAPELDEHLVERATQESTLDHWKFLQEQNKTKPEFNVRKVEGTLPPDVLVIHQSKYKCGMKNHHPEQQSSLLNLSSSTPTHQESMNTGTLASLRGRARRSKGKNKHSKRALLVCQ
For `C=C(NC(=O)C(=C)NC(=O)c1csc(C2=N[C@@H]3c4csc(n4)[C@H]4NC(=O)c5csc(n5)[C@H]([C@](C)(O)[C@@H](C)O)NC(=O)[C@H]5CSC(=N5)/C(=C/C)NC(=O)C([C@@H](C)O)NC(=O)c5csc(n5)C3(CC2)NC(=O)[C@H](C)NC(=O)C(=C)NC(=O)[C@H](C)NC(=O)C([C@@H](C)CC)N[C@@H]2C=Cc3c(C(C)O)cc(nc3[C@H]2O)C(=O)OC4C)n1)C(N)=O` (some centres undefined), the IC50 was > 50 µM (inactive). For `CCCn1c(=O)n(CC(=O)c2ccccc2F)c2c(C(N)=O)nc(-c3ccco3)nc21`, the IC50 was > 50 µM (inactive). With `COc1ccc(Cl)cc1-n1nnc(C(=O)N2CCc3ccccc3C2)c1C` the IC50 was > 50 µM (inactive). In the case of `CCOC(=O)CSc1nnc(-c2cnn(-c3ccccc3)c2N)o1`, the IC50 is reported as 20.5 µM. In the case of `Cc1ccc(C(=O)Nc2ccc3c(c2)C(=O)N(C)c2ccccc2O3)cc1C`, the IC50 is reported as > 50 µM (inactive). For `CC(C)N1CC2CN(Cc3ccc(Cl)cc3)CCN2Cc2ccccc21` (centres undefined), the IC50 was > 50 µM (inactive). `CC1=C(C)C(c2c(-c3ccc(C)cc3)[nH]c3ccccc23)N(C(C)(C)C)C1=O` (centres undefined) was tested, and the IC50 was 2.05 µM. In the case of `COC(=O)c1ccc(NC(=O)CSc2nnc(-c3ccc(O)cc3)n2Cc2ccco2)cc1`, the IC50 is reported as 24.9 µM. `O=C(Cn1c(=O)n(CCC(=O)N2CC=C(c3ccccc3)CC2)c(=O)c2ccccc21)NCc1ccco1` gave an IC50 of 31.2 µM. Compound `Cc1cnnn1-c1ccc(C(=O)Nc2cc(Cl)ccc2Cl)cc1` has an IC50 of 29.2 µM. `Oc1ccc(-c2nc3cnccn3c2NCCc2ccccc2)c(O)c1` was tested, and the IC50 was > 50 µM (inactive). For `Cc1cc(C)n(-c2cccc(C(=O)Nc3ccc4c(c3)CCN4S(C)(=O)=O)c2)n1`, the IC50 was > 50 µM (inactive). `O=C(Nc1cccc(F)c1)C1CCCN(S(=O)(=O)N2CCCCCC2)C1` (centres undefined) showed an IC50 of 39.9 µM. For `COc1ccc(COc2ccc3c(C)c(CC(=O)N4CC[C@@]5(O)CCCC[C@H]5C4)c(=O)oc3c2)cc1`, the IC50 was 2.55 µM. For `Cc1nc2ccc(NC(=O)COc3ccccc3[N+](=O)[O-])cc2s1`, the IC50 was 3.26 µM. In the case of `COc1cc(Cl)ccc1Oc1ncnc2sc(C)c(C)c12`, the IC50 is reported as > 50 µM (inactive). `Cc1ccc2cc(CNc3ccccc3)c(=O)n(CC(=O)Nc3ccccc3C)c2c1` showed an IC50 of 9.1 µM. For `CN=C(N)NCCC/C=C/CCCC(C)CC(C)C1OC(=O)/C=C/C(C)C(O)CC(O)C(C)C(O)CCC(C)C(O)CC2(O)OC(CC(OC(=O)CC(=O)O)CC(O)CC(O)C(C)C(O)/C=C/C1C)CC(O)C2O` (centres undefined), the IC50 was > 50 µM (inactive). With `O=C(Nc1ccc(F)cc1)Nc1ccccc1OCc1cc(=O)n2ccccc2n1` the IC50 was 28.7 µM. With `O=C(COc1nc2ccccc2nc1N1CCOCC1)Nc1cccc(S(=O)(=O)N2CCCCC2)c1` the IC50 was > 50 µM (inactive). `COc1ccc(CC(=O)Nc2cccc(-c3nc4ncccc4o3)c2)cc1OC` was tested, and the IC50 was > 50 µM (inactive). `c1ccc2c(c1)ccc1nnc(-c3ccc4c(c3)OCO4)n12` was tested, and the IC50 was > 50 µM (inactive). Work on `Cc1ccnc(NC(=O)c2ccn(COc3ccc(Cl)cc3)n2)c1` yielded an IC50 of 24.2 µM. In the case of `COc1cc(OC)cc(-n2c(=O)c3sccc3n(CC(=O)c3ccc(F)cc3)c2=O)c1`, the IC50 is reported as 26.1 µM. With `Cc1ccc2nc(-c3cccc(-c4nc5ccc(C)cc5[nH]4)n3)[nH]c2c1` the IC50 was 7.06 µM. Compound `CC1(O)CC(=O)c2c(cc3cc(O)cc(O)c3c2O)C1` (centres undefined) has an IC50 of 0.115 µM. With `O=C(COc1ncnc2ccccc12)Nc1ccc2c(c1)OC1(CCCC1)O2` the IC50 was 35.2 µM. With `CCOC(=O)c1ccc(S(=O)(=O)N2CCC(C(=O)OC(C)C(=O)Nc3cccc([N+](=O)[O-])c3)CC2)cc1` (centres undefined) the IC50 was 7.35 µM. For `N#Cc1ccc(COC(=O)c2ccc3ccccc3n2)cc1`, the IC50 was > 50 µM (inactive). With `COc1cccc2c1NC(=O)C21CCN(C(=O)Nc2cccc3ccccc23)CC1` the IC50 was > 50 µM (inactive). `Cc1nc(-c2noc3ccc(C(=O)Nc4cccnc4)cc23)cs1` gave an IC50 of 42.5 µM. With `N#Cc1ccc(Cn2nnc(-c3cccc(Cl)c3)n2)cc1` the IC50 was > 50 µM (inactive). Compound `COc1ccc(Cn2cnc3c([nH]c4ccc(Br)cc43)c2=O)cc1` has an IC50 of 0.778 µM. `Cc1cccc(-n2cnc(C(=O)NCc3ccc(F)cc3)c2)n1` was tested, and the IC50 was 22.8 µM. In the case of `COc1cc2c(cc1OC)C(COc1ccccc1OC)N(C(=O)c1ccc3ccccc3c1)CC2` (centres undefined), the IC50 is reported as > 5 µM (inactive). `COc1ccccc1CNC(=O)CCCCn1c(=O)c2ccccc2n(Cc2ccccc2C#N)c1=O` showed an IC50 of 13.1 µM. `c1csc(-c2nc(Nc3ccc4c(c3)CCC4)c3ccccc3n2)c1` gave an IC50 of 4.19 µM. With `CCOC(=O)c1ccc(NC(=O)Cn2c(=O)n(CC(=O)NCCc3ccc(OC)c(OC)c3)c(=O)c3sccc32)cc1` the IC50 was 2.51 µM. For `CCC(=O)Nc1nc2cc(NC(=O)Nc3cc(C)cc(C)c3)ccc2s1`, the IC50 was 3.21 µM. Compound `CCOc1ccc(NS(=O)(=O)c2ccc(NC(=O)Nc3ccccc3)cc2)cc1` has an IC50 of 17.9 µM. In the case of `COc1cccc(-c2nc(C(N)=O)c3[nH]c(=O)n(-c4cccc(Cl)c4)c3n2)c1OC`, the IC50 is reported as > 50 µM (inactive). With `COc1ccccc1-c1ccc(SCC(=O)Nc2ccc3c(c2)OCCO3)nn1` the IC50 was > 50 µM (inactive). Work on `CCc1ccccc1NC(=O)c1cc(-c2ccccn2)n[nH]1` yielded an IC50 of 31 µM. `Cc1nc(SCC(=O)Nc2cc(Cl)ccc2C)c2oc3ccccc3c2n1` gave an IC50 of 1.67 µM. Work on `CN1C(=O)COc2cc(-c3noc(C(=O)NC4CCCCCC4)n3)ccc21` yielded an IC50 of 39.3 µM. For `Cc1nn(-c2nc3ccccc3[nH]2)c2c1C(c1cccs1)CC(=O)N2` (centres undefined), the IC50 was > 50 µM (inactive). For `CC(C)c1nc2sc3c(NCc4ccco4)ncnc3c2c2c1CCC2`, the IC50 was > 50 µM (inactive). In the case of `COC1=CC(=O)c2c(O)c3c(c(C)c2C1=O)C[C@@]1(O)[C@H](O[C@H]2CC[C@H](O[C@H]4C[C@@](C)(O)[C@H](OC(=O)c5c(C)ccc(C)c5O)[C@H](C)O4)[C@@H](C)O2)C(=O)C(C(C)=O)=C(O)[C@@]1(O)C3=O`, the IC50 is reported as 1.34 µM. `Cc1cccc(OCCn2c(CCNC(=O)C3CCCCC3)nc3ccccc32)c1` showed an IC50 of 28.6 µM. `O=C(Oc1ccc(-c2cnc3ccccc3n2)cc1)c1ccc(F)cc1` showed an IC50 of 6.4 µM. In the case of `COCCCN1CCS(=O)(=O)c2c(Cl)c(F)nc(Oc3ccc(C#N)cc3)c21`, the IC50 is reported as > 50 µM (inactive). Compound `Cc1c(-c2nc(-c3ccccc3Cl)no2)nnn1-c1cccc(F)c1` has an IC50 of 6.66 µM. `CC1=C2C(=NCCN1)C(=O)N(c1ccccc1)C2c1cccnc1` (centres undefined) was tested, and the IC50 was > 50 µM (inactive). For `O=C(Nc1cc(Cl)cc(Cl)c1)c1csnn1`, the IC50 was 22.4 µM. Work on `CCCc1cc(=O)oc2cc(OCC(=O)NCc3ccc(OC)cc3)ccc12` yielded an IC50 of 9.4 µM. `Cc1nnc(C(=O)Nc2ccc(C(=O)NCc3ccccc3C)cc2)s1` was tested, and the IC50 was 27.2 µM. `COc1cccc(NC(=O)c2cnc3c(c2)c(=O)n(C)c(=O)n3C)c1` was tested, and the IC50 was 2.34 µM. `O=C(Nc1ccccc1)c1ccc2c(c1)CC(c1ccccc1)OC2=O` (centres undefined) gave an IC50 of 16 µM. With `COc1ccc(CCNc2c(-c3ccccc3O)nc3cnccn23)cc1OC` the IC50 was > 50 µM (inactive). `COC1=C(C2=C(OC)C(=O)c3cc4c(c(O)c3C2=O)C(=O)OC(C)C4)C(=O)c2c(cc3c(c2O)C(=O)OC(C)C3)C1=O` (centres undefined) gave an IC50 of 0.0977 µM. `CCCC[C@@H](C)/C=C(C)/C=C(\C)C(=O)NC1=C[C@](O)(/C=C/C=C/C=C/C(=O)NC2=C(O)CCC2=O)[C@@H]2O[C@@H]2C1=O` gave an IC50 of 3.1 µM. `O=C1CC(O)C(O)c2cccc(O)c21` (centres undefined) gave an IC50 of 9.86 µM. With `CCOc1ccc(C(=O)Cn2c(=O)n(CC3CCCO3)c(=O)c3cc(OC)c(OC)cc32)cc1Cl` (centres undefined) the IC50 was 17.7 µM. For `CCOC(=O)c1cccc(NC(=O)Nc2cccn3nc(C)nc23)c1`, the IC50 was > 50 µM (inactive).
